The test system of this experiment is diamondback moth, Plutella xylostella. In words: Diamondback moth bioassay on track-sprayed cabbage plants/leaf discs, percent control. The class given is in vivo. As to the method:
Three second-instar diamondback moth, Plutella xylostella, were infested onto each leaf disc. […] The “Colby's Expected Action” was calculated using Colby's equation as discussed previously.

Structures are written as SMILES.

`N#CCNC(=O)c1cnccc1C(F)(F)F` [Flonicamid, N-(cyanomethyl)-4-(trifluoromethyl)-3-pyridinecarboxamide, reference compound]: the “% Control Three Days After Treatment” value runs as follows: (flonicamid alone, dose rate 0.000039 weight %) 4.17%; (flonicamid alone, dose rate 0.000156 weight %) 4.17%.

Turning to `CCN(C(=O)CCSCCC(F)(F)F)c1cn(-c2cccnc2)nc1Cl` [Compound I, N-(3-chloro-1-(pyridin-3-yl)-1H-pyrazol-4-yl)-N-ethyl-3-((3,3,3-trifluoropropyl)thio)propanamide], the “% Control Three Days After Treatment” value (compound I alone, dose rate 0.000625 weight %) worked out at 0%; the “% Control Three Days After Treatment” value (compound I alone, dose rate 0.000625 weight %, listed as compound I) is on record as “no control”; the “% Control Three Days After Treatment” value (compound I alone, dose rate 0.0025 weight %, second-instar larvae, 400 L/Ha spray) is “no control”.

The record behind these values is patent US9149040B2, “Synergistic pesticidal compositions and related methods” (Dow AgroSciences LLC, priority 2013, dated 2015).
